Source: patent US12209091B2, “Isoindolinone derivatives as selective allosteric inhibitors of Egfr mutant cancers” (Hoffmann-La Roche Inc., priority 2018, dated 2025)

Target: T1, Phospho EGFR TMLR (H1975 cells) (Homo sapiens, UniProt P00533, L858R/T790M)
T1 construct: H1975 cell line (CRL-5908; Lot BA70803) was obtained from American Type Culture Collection; host or cells: H1975
Assay: HTRF Phospho EGFR TMLR assay (cellular), H1975
Assay type: cell-based
Details: H1975 cell line, 16 hours compound incubation, Phospho-EGFR HTRF readout
Procedure: HTRF Phospho EGFR TMLR Assay (Cellular)
H1975 cell line (CRL-5908; Lot BA70803) was obtained from American Type Culture Collection (Manassas, VA, USA). Cells were maintained at 37° C., 5% CO2 in complete Media RPMI 1640 without phenol red containing 0.3 mg/ml glutamine, 100 IU/ml penicillin, and […] streptomycin (Gibco, 15140-122) supplemented with 10% fetal bovine serum (FBS, Gibco, 10091-148). Compounds were diluted into starving medium RPMI 1640 Media (Gibco, 11835-030) without phenol red containing 0.3 mg/ml glutamine, 100 IU/ml penicillin, and […] streptomycin (Gibco).
Cells were cultured for 24 h in a 384-well plate (Greiner Bio-One, Nr. 784-080; 5000 cells/well) using 8 μl of complete medium/well. Then 4 μl/well of the 3× compound solution, containing a factor 3 dilution series of the compound or DMSO in starving medium, were added to the cells (final DMSO 0.33%). After 16 hours at 37° C., 5% CO2, 95% rel. humidity cells were lysed by adding to the compound mix 4 μl/well of the supplemented lysis buffer (Cis-bio, Phospho-EGFR HTRF kit, 64EG1PEH), followed by incubation for 30 min at room temperature with shaking (400 rpm). Then 4 μl of a mixture of anti-Phospho-EGFR Cryptate and of anti-Phospho-EGFR-d2 antibody solutions prepared in the detection buffer was added. The plates were then incubated for 4 h at room temperature before reading the fluorescence emission at 620 and 665 nm using an Envision reader (Perkin Elmer).

T1 sequence (P00533 25-1210 T790M/L858R): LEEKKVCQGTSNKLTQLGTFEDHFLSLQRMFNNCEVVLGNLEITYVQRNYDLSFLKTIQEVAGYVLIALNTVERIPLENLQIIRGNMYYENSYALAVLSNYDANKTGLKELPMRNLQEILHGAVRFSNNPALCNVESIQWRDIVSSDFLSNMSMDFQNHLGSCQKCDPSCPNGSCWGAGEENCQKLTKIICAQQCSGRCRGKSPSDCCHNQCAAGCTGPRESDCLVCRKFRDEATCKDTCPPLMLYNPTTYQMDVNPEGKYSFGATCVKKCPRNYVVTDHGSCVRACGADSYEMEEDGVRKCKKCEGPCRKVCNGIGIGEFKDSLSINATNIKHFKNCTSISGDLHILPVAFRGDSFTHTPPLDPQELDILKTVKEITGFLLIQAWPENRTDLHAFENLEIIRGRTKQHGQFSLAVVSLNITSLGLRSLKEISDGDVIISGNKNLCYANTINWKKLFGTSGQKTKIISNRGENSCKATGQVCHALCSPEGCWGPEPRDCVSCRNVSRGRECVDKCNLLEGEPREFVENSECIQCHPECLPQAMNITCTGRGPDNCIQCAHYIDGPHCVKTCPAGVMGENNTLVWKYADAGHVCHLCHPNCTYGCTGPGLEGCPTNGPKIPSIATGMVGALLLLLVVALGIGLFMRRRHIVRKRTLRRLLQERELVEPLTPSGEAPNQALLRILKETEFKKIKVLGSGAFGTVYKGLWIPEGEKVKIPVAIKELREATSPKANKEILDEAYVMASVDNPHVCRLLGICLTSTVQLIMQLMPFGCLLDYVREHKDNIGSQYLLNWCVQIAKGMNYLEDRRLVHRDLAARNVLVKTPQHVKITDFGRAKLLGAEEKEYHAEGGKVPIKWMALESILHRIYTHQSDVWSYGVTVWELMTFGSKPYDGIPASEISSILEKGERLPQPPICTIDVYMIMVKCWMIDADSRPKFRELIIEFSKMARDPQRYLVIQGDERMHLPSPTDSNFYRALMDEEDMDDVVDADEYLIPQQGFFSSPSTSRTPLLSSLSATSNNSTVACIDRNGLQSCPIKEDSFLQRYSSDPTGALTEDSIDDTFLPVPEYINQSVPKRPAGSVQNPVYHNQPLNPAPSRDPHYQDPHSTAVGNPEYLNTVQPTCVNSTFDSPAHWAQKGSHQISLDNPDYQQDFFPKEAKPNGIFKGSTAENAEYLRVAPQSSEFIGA

SMILES	IC50 [nM]
CN1CCN(Cc2ccc(C#Cc3cc(F)c4c(c3)C(=O)N(C(C(=O)Nc3nccs3)c3ncn5c3CCC5)C4)cc2)CC1 (racemic) [Example 1, (2RS)-2-(6,7-Dihydro-5H-pyrrolo[1,2-c]imidazol-1-yl)-2-[4-fluoro-6-[2-[4-[(4-methylpiperazin-1-yl)methyl]phenyl]ethynyl]-1-oxo-isoindolin-2-yl]-N-thiazol-2-yl-acetamide]	3
CCN1CCN(c2ccc(-c3cc(Cl)c4c(c3)C(=O)N(C(C(=O)Nc3nccs3)c3ncn5c3CCC5)C4)cc2)CC1 (racemic) [Example 6, (2RS)-2-[4-Chloro-6-[4-(4-ethylpiperazin-1-yl)phenyl]-1-oxo-isoindolin-2-yl]-2-(6,7-dihydro-5H-pyrrolo[1,2-c]imidazol-1-yl)-N-thiazol-2-yl-acetamide]	4
CCN1CCN(c2ccc(-c3cc(F)c4c(c3)C(=O)N(C(C(=O)Nc3nccs3)c3ncn5c3CCC5)C4)cn2)CC1 (racemic) [Example 4, (2RS)-2-(6,7-Dihydro-5H-pyrrolo[1,2-c]imidazol-1-yl)-2-[6-[6-(4-ethylpiperazin-1-yl)-3-pyridyl]-4-fluoro-1-oxo-isoindolin-2-yl]-N-thiazol-2-yl-acetamide]	4
O=C(Nc1nccs1)C(c1ncn2c1CCC2)N1Cc2c(F)cc(C#Cc3ccc(CN4CCC(O)CC4)cc3)cc2C1=O (racemic) [Example 2, (2RS)-2-(6,7-Dihydro-5H-pyrrolo[1,2-c]imidazol-1-yl)-2-[4-fluoro-6-[2-[4-[(4-hydroxy-1-piperidyl)methyl]phenyl]ethynyl]-1-oxo-isoindolin-2-yl]-N-thiazol-2-yl-acetamide]	1
CCN1CCN(c2ccc(-c3cc(F)c4c(c3)C(=O)N(C(C(=O)Nc3nccs3)c3ncn5c3CCC5)C4)cc2)CC1 (racemic) [Example 5, (2RS)-2-(6,7-Dihydro-5H-pyrrolo[1,2-c]imidazol-1-yl)-2-[6-[4-(4-ethylpiperazin-1-yl)phenyl]-4-fluoro-1-oxo-isoindolin-2-yl]-N-thiazol-2-yl-acetamide]	3
O=C(Nc1nccs1)C(c1ncn2c1CCC2)N1Cc2c(F)cc(-c3ccc(N4CCNCC4)cc3)cc2C1=O (racemic) [Example 3, (2RS)-2-(6,7-Dihydro-5H-pyrrolo[1,2-c]imidazol-1-yl)-2-[4-fluoro-1-oxo-6-(4-piperazin-1-ylphenyl)isoindolin-2-yl]-N-thiazol-2-yl-acetamide]	2

Results, then the molecule that gave them:

IC50 [nM]	SMILES
1	O=C(Nc1nccs1)C(c1ncn2c1CCC2)N1Cc2c(F)cc(-c3ccc(N4CCC(O)CC4)cc3)cc2C1=O (racemic) [Example 7, (2RS)-2-(6,7-Dihydro-5H-pyrrolo[1,2-c]imidazol-1-yl)-2-[4-fluoro-6-[4-(4-hydroxy-1-piperidyl)phenyl]-1-oxo-isoindolin-2-yl]-N-thiazol-2-yl-acetamide]
2	O=C(Nc1nccs1)C(c1ncn2c1CCC2)N1Cc2c(Cl)cc(-c3ccc(N4CCC(O)CC4)cc3)cc2C1=O (racemic) [Example 11, (2RS)-2-[4-Chloro-6-[4-(4-hydroxy-1-piperidyl)phenyl]-1-oxo-isoindolin-2-yl]-2-(6,7-dihydro-5H-pyrrolo[1,2-c]imidazol-1-yl)-N-thiazol-2-yl-acetamide]
2	O=C(Nc1nccs1)C(c1ncn2c1CCC2)N1Cc2c(Cl)cc(-c3ccc(N4CCC(O)CC4)nc3)cc2C1=O (racemic) [Example 8, (2RS)-2-[4-Chloro-6-[6-(4-hydroxy-1-piperidyl)-3-pyridyl]-1-oxo-isoindolin-2-yl]-2-(6,7-dihydro-5H-pyrrolo[1,2-c]imidazol-1-yl)-N-thiazol-2-yl-acetamide]
8	O=C(Nc1nccs1)C(c1ccn2c1CCC2)N1Cc2c(F)cc(C#Cc3ccc(CN4CCC(O)CC4)cc3)cc2C1=O (racemic) [Example 10, (2RS)-2-(6,7-Dihydro-5H-pyrrolizin-1-yl)-2-[4-fluoro-6-[2-[4-[(4-hydroxy-1-piperidyl)methyl]phenyl]ethynyl]-1-oxo-isoindolin-2-yl]-N-thiazol-2-yl-acetamide]
2	O=C(Nc1nccs1)C(c1ncn2c1CCC2)N1Cc2c(F)cc(C#Cc3ccc(CO)cc3)cc2C1=O (racemic) [Example 12, (2RS)-2-(6,7-Dihydro-5H-pyrrolo[1,2-c]imidazol-1-yl)-2-[4-fluoro-6-[2-[4-(hydroxymethyl)phenyl]ethynyl]-1-oxo-isoindolin-2-yl]-N-thiazol-2-yl-acetamide]
4	O=C(Nc1nccs1)C(c1ncn2c1CCC2)N1Cc2c(F)cc(C#Cc3ccc(CN4CCCCC4)cc3)cc2C1=O (racemic) [Example 14, (2RS)-2-(6,7-Dihydro-5H-pyrrolo[1,2-c]imidazol-1-yl)-2-[4-fluoro-1-oxo-6-[2-[4-(1-piperidylmethyl)phenyl]ethynyl]isoindolin-2-yl]-N-thiazol-2-yl-acetamide]
4	O=C(Nc1nccs1)C(c1ncn2c1CCC2)N1Cc2c(Cl)cc(C#Cc3ccc(CN4CCC(O)CC4)cc3)cc2C1=O (racemic) [Example 9, (2RS)-2-[4-Chloro-6-[2-[4-[(4-hydroxy-1-piperidyl)methyl]phenyl]ethynyl]-1-oxo-isoindolin-2-yl]-2-(6,7-dihydro-5H-pyrrolo[1,2-c]imidazol-1-yl)-N-thiazol-2-yl-acetamide]
3	O=C(Nc1nccs1)C(c1ncn2c1CCC2)N1Cc2c(F)cc(C#Cc3ccc(CN4CCC(O)CC4)cc3)c(Cl)c2C1=O (racemic) [Example 13, (2RS)-2-[7-chloro-4-fluoro-6-[2-[4-[(4-hydroxy-1-piperidyl)methyl]phenyl]ethynyl]-1-oxo-isoindolin-2-yl]-2-(6,7-dihydro-5H-pyrrolo[1,2-c]imidazol-1-yl)-N-thiazol-2-yl-acetamide]
